Laboratory results published in the NIST ThermoML archive (doi:10.1021/je700215z).

Assays:
[1] = xn = mol fraction of the nth substance listed

CCO [ethanol]
Conditions | surface tension liquid-gas [mN/m]
283.15 K | 23.12
288.15 K | 22.75
293.15 K | 22.28
298.15 K | 21.86
303.15 K | 21.49
308.15 K | 21.15
313.15 K | 20.66

CCC(C)O (stereo unspecified) [butan-2-ol]
Conditions | surface tension liquid-gas [mN/m]
283.15 K | 24.37
288.15 K | 23.95
293.15 K | 23.56
298.15 K | 23.08
303.15 K | 22.75
308.15 K | 22.39
313.15 K | 21.97

CCC(C)O (stereo unspecified) [butan-2-ol] + CCCCCC
surface tension liquid-gas [mN/m], [1]
Conditions | 283.15 K | 288.15 K | 293.15 K | 298.15 K | 303.15 K | 308.15 K | 313.15 K
x1 = 0.0493 | 19.75 | 19.16 | 18.62 | 18.11 | 17.52 | 16.69 | 16.33
x1 = 0.1057 | 19.84 | 19.24 | 18.7 | 18.14 | 17.53 | 16.66 | 16.26
x1 = 0.2083 | 20 | 19.36 | 18.8 | 18.21 | 17.62 | 16.81 | 16.41
x1 = 0.3004 | 20.18 | 19.52 | 18.95 | 18.37 | 17.82 | 17.08 | 16.7
x1 = 0.4002 | 20.43 | 19.77 | 19.21 | 18.67 | 18.16 | 17.5 | 17.13
x1 = 0.4962 | 20.72 | 20.13 | 19.6 | 19.09 | 18.6 | 18.01 | 17.62
x1 = 0.5948 | 21.1 | 20.57 | 20.13 | 19.61 | 19.18 | 18.6 | 18.22
x1 = 0.6968 | 21.64 | 21.2 | 20.76 | 20.26 | 19.84 | 19.33 | 18.92
x1 = 0.8018 | 22.35 | 21.9 | 21.52 | 21.04 | 20.67 | 20.18 | 19.74
x1 = 0.8964 | 23.18 | 22.74 | 22.34 | 21.88 | 21.52 | 21.12 | 20.73
x1 = 0.9492 | 23.73 | 23.31 | 22.9 | 22.43 | 22.11 | 21.73 | 21.33
